The values that follow come from patent publication US5162354A, “3-halo-5-halomethyl-2-oxazolidinones and their use as microbicides” (Buckman Laboratories International, Inc., priority 1991, dated 1992).

Format in all cases: cell-based
For one experiment, the system named is Enterobacter aerogenes. The experiment can be described thus: Basal salts method, minimum inhibitory concentration against Enterobacter aerogenes. Conditions: Klebsiella aerogenes, at least 80% kill. As for the experimental part: Compounds 1-4 of Examples 3-6 of the present invention were tested by the basal salts method described in U.S. Pat. No. 2,881,070 at column 5, beginning at line 12 and extending to column 6, line 53. […] The minimum inhibitory concentrations are those in which a percentage kill of at least 80% is obtained.

The next experiment has as its system Aspergillus niger. In words: Growth inhibiting activity on the fungus Aspergillus niger. Conditions: Aspergillus niger pH 6.0; completely prevented growth; read-out: Minimum inhibitory concentration against fungi. On the procedure: The microorganism growth inhibiting activity of compounds 1-4 on the fungus Aspergillus niger was evaluated. The method is described in U.S. Pat. No. 4,945,109, column 5 beginning at line 47 to column 6, line 33. The disclosure of U.S. Pat. No. 4,945,109 is incorporated herein by reference.

In the next experiment the test system is Phormidium inundatum. The experiment can be described thus: Growth inhibiting activity against algae in Difco Algae Broth (Phormidium inundatum). The conditions noted are these: 672 h, pH 7, read-out: Minimum inhibitory concentration against algae. On the procedure:
The growth inhibiting activity of the method of the invention against the three algae Chlorella pyrenoidosa, Chlorococcum hypnosporum and Phormidium inundatum was evaluated in Difco Algae Broth, the content of which was as follows:
Forty-gram portions of the algae medium were added to 250 mL Pyrex Erlenmeyer flasks fitted with loose metal caps and then sterilized. Each of the following substances was then added to the flasks in the order listed:
1. Sterile algae medium as required to bring the total weight of the contents of each flask to 50 grams, after allowing for all subsequent additions specified below.
2. A solution of one of compounds 1-4 or of a control agent to be evaluated in each test, to give the concentration desired in parts per million by weight.
3. Chlorella pyrenoidosa, Chlorococcum hypnosporum and Phormidium inundatum in amounts sufficient to give excellent growth in the controls after 14 days. This was achieved by adding 1 milliliter of a 14 day old culture having luxuriant growth. The Chlorella pyrenoidosa culture was obtained from American Type Culture Collection No. 7516; Chlorococcum hypnosporum, from the University of TX at Austin; and Phormidium inundatum, WI No. 1093, from the University of WA.
As a control experiment, WSCP was used as a positive control agent. WSCP is a known toxicant which kills C. pyrenoidosa at 2 ppm, C. hypnosporum at 2ppm, and P. inundatum at 10 ppm. Control experiments were also carried out where no toxicants were employed. In the algicidal tests, the growth of algae in the nutrient medium is lush green and can be seen with the naked eye. Because the minimum inhibitory concentrations of the compounds in this example are those which result in complete inhibition, evaluation of the test results is not subjective.
After the inoculum of the test algae was added, the flasks were incubated at a temperature of 28°±2° C. under fluorescent illumination of 250 foot-candle intensity (8 hours light, 16 hours darkness) for a period adequate for growth in the controls (those portions of medium which contained no toxicant). Observations of growth were made at 7-day intervals. Minimum inhibitory concentrations are those that prevented complete growth after 28 days.

A further experiment relates to Salmonella choleraesuis. The experiment can be described thus: AOAC Disinfectant Swimming Pool Assay (Salmonella choleraesuis). Conditions: Salmonella enterica, 10 min, contact time 10 minutes, read-out: MIC (Minimum inhibitory concentration required to inhibit microorganisms). As for the experimental part: (§1) This example was based on the procedure described in AOAC (Association of Official Analytical Chemists) Official Methods of Analysis (1986) pp 75-77. The results obtained by this method are suitable for presumptive evidence of acceptability of products for disinfecting swimming pool water. The results obtained for Compound 1 in a contact time of 10 minutes are noted in Table IV.

In another experiment the test system is Klebsiella pneumonia. The experiment can be described thus: AOAC Disinfectant Swimming Pool Assay (Klebsiella pneumonia). The conditions noted are these: Klebsiella pneumoniae, 10 min, read-out: MIC (Minimum inhibitory concentration required to inhibit microorganisms). On the procedure: as §1
In experiment [1] the test system is Escherichia coli. The experiment can be described thus: AOAC Germicidal and Detergent Sanitizing Action of Disinfectants (Escherichia coli). As for the experimental part:
This test is conducted according to AOAC methods described in AOAC Official Methods of Analysis (1984) p 70. This test is suitable for chemicals that can be permitted for use in sanitizing precleaned non-porous food contact surfaces. This test also determines the effectiveness of compounds tested in hard water. Most of the detergents/sanitizers available in the market become ineffective in the presence of hard water, i.e. water containing calcium and/or magnesium ions. A water hardness value of 400 ppm was chosen because it is considered to be the highest hardness value for tap water in the United States.

In the next experiment the test system is Staphylococcus aureus. The experiment can be described thus: Efficacy of Sanitizers Recommended for Non-Food Contact Surfaces, ASTM E 1153-87 (Staphylococcus aureus). The conditions noted are these: 99.9% kill, read-out: Minimum inhibitory concentration required to inhibit microorganisms. As for the experimental part:
(§2) This test method is used to evaluate the antimicrobial efficacy of sanitizers on precleaned non-porous, non-food contact surfaces. This test was performed according to the test procedure E 1153-87 of ASTM. […] For most of the sanitizers, effectiveness is hampered (or minimum inhibitory concentrations go up) in the presence of an organic load. Therefore, the compounds of the present invention are tested both in the presence and absence of 5% organic load (Bovine albumin fraction V, Sigma Chemical Company).

Experiment [2] relates to Escherichia coli. The experiment can be described thus: Efficacy of Sanitizers Recommended for Non-Food Contact Surfaces, ASTM E 1153-87 (Escherichia coli). Conditions: 99.9% kill, read-out: Minimum inhibitory concentration required to inhibit microorganisms. On the procedure:
as §2

Setting [3] is: With 5% organic load (bovine albumin).

Each structure is given as a SMILES string. Converted amounts (≈) assume the structure as drawn. Read-outs that look alike come from different tables or passages of the source.

With `O=C1OC(CCl)CN1Br` (stereo not drawn) [Compound 1, 3-Bromo-5-chloromethyl-2-oxazolidinone], the MIC in the experiment with Enterobacter aerogenes (pH 6.0) amounted to 10 µg/mL; with Enterobacter aerogenes (pH 8.0), 10 µg/mL; in the experiment on Aspergillus niger it was 10 µg/mL (≈ 46.6 µM); in the experiment on Phormidium inundatum, 2 µg/mL (≈ 9.33 µM); in the experiment with Salmonella choleraesuis it was 80 µg/mL (≈ 373 µM); in the experiment with Klebsiella pneumonia it was 100 µg/mL (≈ 466 µM). Also, the MIC in the experiment with Escherichia coli [1] (Soft Water, read-out: Minimum inhibitory concentration required to inhibit microorganisms) is 80 µg/mL (≈ 373 µM); in the experiment with Staphylococcus aureus (setting [3]), 160 µg/mL (≈ 746 µM); in the experiment with Staphylococcus aureus (Without organic load), 80 µg/mL (≈ 373 µM); in the experiment on Escherichia coli [2] (setting [3]), 160 µg/mL (≈ 746 µM); in the experiment on Escherichia coli [2] (Without organic load), 80 µg/mL (≈ 373 µM). Also, the “Minimum inhibitory concentration required to inhibit microorganisms” value in the experiment on Escherichia coli [1] (Hard Water (400 ppm calcium carbonate)) is 80 parts per million (w/v).
